Assay results reported in article PMC10218449, “Evidence for Angiotensin II as a Naturally Existing Suppressor for the Guanylyl Cyclase A Receptor and Cyclic GMP Generation” (International Journal of Molecular Sciences, 2023).

Legend:
[1] = Circulating ANP levels in normal rats after infusion; type: in vivo, rat (Sprague-Dawley, male)
Procedure: (F) Urine output represented by urine volume collected at every 30 min interval during continuous infusion. (G) Urinary sodium excretion during the entire 90 min continuous infusion.
Protocols in this study have been approved by the Mayo Clinic Institutional Animal Care and Use Committee (IACUC). Rats (Sprague-Dawley, male, 10–11 weeks old) were anesthetized and maintained with 2% isoflurane. Rats were kept on heating pad at 37 °C for the entire experiment to maintain their body temperature. Polyethylene tubes (PE-50) were placed into a jugular vein for saline and peptides infusion and into a carotid artery for BP monitoring and blood sampling. The bladder was cannulated with a PE-90 tube for passive urine collection. […] After the 45 min equilibrium, BP was recorded, and blood was sampled as baseline reference value. […] Urine samples were collected every 30 min period and BP was measured every 15 min using CardioSOFT Pro software (Sonometrics Corporation). […] The volume of urine was measured, and the sodium concentrations were measured with an electrocyte analyzer (Diamond Diagnostics Inc., Holliston, MA, USA). Both plasma and urine samples were then stored at −80 °C until assayed. cGMP was measured in rat plasma and urine samples by a cGMP ELISA (Enzo Life Sciences, Farmingdale, NY, USA) as previously reported.

[2] = test system: HEK293/GC-A^+/AT1^+ cells (human GC-A and AT1); assay: Intracellular cGMP generation in HEK293/GC-A+/AT1+ cells; type: cell-based; details: valsartan 1 µM or Go6983 5 µM; ANP 10^−8 M, ANGII 10^−8 M; one-way ANOVA with Dunnett, p < 0.05
Text: We leveraged HEK293 cells as a cellular tool for mechanistic exploration in the current study. HEK293 cells (passage 4–6) were maintained in Dulbecco’s modified Eagle’s medium (DMEM) supplemented with 10% fetal bovine serum, 100 U/mL penicillin, 100 U/mL streptomycin, and designated antibiotics. HEK293/GC-A^+ and HEK293/GC-B^+ cell lines were generated from HEK293 parental cell transfected with plasmids (OriGene, Rockville, MD, USA) containing either human GC-A or GC-B cDNA sequences. Both GC-A and GC-B plasmid carried sequences for a green florescence protein (GFP) tag and resistance to Neomycin (G418). HEK293/GC-A^+/AT1^+ and HEK293/GC-A^+/AT2^+ cell lines were generated from HEK293/GC-A^+ transfected with lentiviral particle with clones of either human AT1 or AT2 receptor (OriGene, Rockville, MD, USA) using a polybrene transfection agent. Initial transfection was completed with multiplicity of infection (MOI) at 20, 10, and 1. The lentiviral vector carried sequence for resistance to puromycin. Positive HEK293/GC-A^+ and HEK293/GC-B^+ cells were cultured in a regular medium with 250 μg/mL G418; Likewise, positive HEK293/GC-A^+/AT1^+ or HEK293/GC-A^+/AT2^+ cells were cultured in a regular medium with 250 μg/mL G418 (to select for GC-A^+ cells) and 1 μg/mL puromycin (to select for AT1^+ or AT2^+ cells). […]

p38 MAPK = assay: MAPK phosphorylation (p38 MAPK, western blot); type: cell-based, human; details: Go6983 at 5 µM, HEK293/GC-A^+/AT1^+ cells
Text: (§1) Figure 5 Involvement of PKC Signaling in the Crosstalk between ANGII and GC-A. (A) Protein expression of different human PKC isoforms in the membrane and cytosol fractions of different HEK293 cell lines (with or without treatment of ANGII). GC-A and NaK-ATPase serve as quality control for the separation of membrane and cytosol fractions. GAPDH serves as an additional control as it is primarily expressed in the cytosol fraction compared to membrane fraction. (B) Protein expression of phosphorylated PKC substrates, phosphorylated p38 MAPK, and p38 MAPK in HEK293/GC-A^+/AT1^+ cells treated with different PKC modulators. GAPDH serves as a loading control and 50 µg of total protein (determined using BCA method) was loaded in each lane. PMA, phorbol 12-myristate 13-acetate. […] (D) Hypothetical mechanism underlying the crosstalk between ANGII and GC-A derived from our in vitro studies: (1) ANGII naturally suppresses GC-A mediated cGMP production via AT1 receptor, but not the AT2 receptor nor direct effect on GC-A; (2) PKC is a critical downstream target of AT1 mediating this RAAS/NPS interaction.
(§2) HEK293 parental cells, HEK293/GC-A^+, HEK293/GC-B^+, HEK293/GC-A^+/AT1^+, and HEK293/GC-A^+/AT2^+ cells were cultured in 60 mm dish to reach 90–100% confluency before being harvested in RIPA buffer (Thermo Fisher Scientific, Waltham, MA, USA) with protease inhibitors. […]

PKC = PKC activity (phosphorylated pan-PKC substrates, western blot); type: cell-based, human; details: Go6983 at 5 µM, HEK293/GC-A^+/AT1^+ cells
Text: as §1, §2

For `CC[C@H](C)[C@H](NC(=O)[C@H](Cc1ccc(O)cc1)NC(=O)[C@@H](NC(=O)[C@H](CCCNC(=N)N)NC(=O)[C@@H](N)CC(=O)O)C(C)C)C(=O)N[C@@H](Cc1cnc[nH]1)C(=O)N1CCC[C@H]1C(=O)N[C@@H](Cc1ccccc1)C(=O)O` [ANGII, angiotensin II], the “circulating ANP levels, effect of ANGII co-infusion (in words)” value ([1]; ANGII 50 pmol/kg/min with ANP 300 pmol/kg/min vs ANP alone, 90 min, N = 4 per group) was “no influence on circulating ANP levels”.
In the case of `CC[C@H](C)[C@@H]1NC(=O)[C@H](CCCNC(=N)N)NC(=O)[C@H](CC(=O)O)NC(=O)[C@H](CCSC)NC(=O)[C@H](CCCNC(=N)N)NC(=O)CNC(=O)CNC(=O)[C@H](Cc2ccccc2)NC(=O)[C@@H](NC(=O)[C@H](CO)NC(=O)[C@H](CO)NC(=O)[C@H](CCCNC(=N)N)NC(=O)[C@H](CCCNC(=N)N)NC(=O)[C@H](CC(C)C)NC(=O)[C@@H](N)CO)CSSC[C@@H](C(=O)N[C@@H](CC(N)=O)C(=O)N[C@@H](CO)C(=O)N[C@@H](Cc2ccccc2)C(=O)N[C@@H](CCCNC(=N)N)C(=O)N[C@@H](Cc2ccc(O)cc2)C(=O)O)NC(=O)CNC(=O)[C@H](CC(C)C)NC(=O)CNC(=O)[C@H](CO)NC(=O)[C@H](CCC(N)=O)NC(=O)[C@H](C)NC(=O)CNC1=O` [ANP, atrial natriuretic peptide], the “circulating ANP level” value ([1]; ANP alone, 300 pmol/kg/min continuous i.v. infusion, plasma at 90 min, mean ± SEM, N = 4, endogenous level 15.3 ± 1.4 pg/mL) was 18125.1 ± 1729.3 pg/mL.
In the case of `CCCCC(=O)N(Cc1ccc(-c2ccccc2-c2nnn[nH]2)cc1)[C@H](C(=O)O)C(C)C` [valsartan], the “rescue of ANGII suppression of ANP-induced cGMP (in words)” value [2] was “significantly rescued the suppression effect of ANGII on ANP-induced cGMP”.
In the case of Go6983, the “rescue of ANGII suppression of ANP-induced cGMP (in words)” value [2] was “significantly rescued the suppression effect of ANGII on ANP-induced cGMP”, the “MAPK dependence of PKC inhibition (in words)” value (p38 MAPK) was “mitogen-activated protein kinase (MAPK) independent manner” and the “PKC activity inhibition (in words)” value (PKC) was “effectively inhibited PKC activity”.
